Assay results reported in patent US8383637B2, “2-amino-quinazoline derivatives useful as inhibitors of β-secretase (BACE)” (Jansssen Pharmaceutica N.V., priority 2004, dated 2013).
Values joined by “and” are separate entries in the source; they are usually repeats but may differ in a detail not shown here. Identical values can stand only once. Like-named read-outs stand apart in the source and are kept apart here.

What was measured:
Format in all cases: biochemical
β-secretase(BACE) [1] = target: T1, β-secretase(BACE) (Homo sapiens, UniProt P56817); assay: BACE Assay-1 (MCA-substrate, IC50)
T1 construct: purchased Panvera
How it was run: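 Human BACE (work solution 10 μg/mL) with MCA-peptide substrate (stock 2.0 mg/mL) in 0.05 M citrate buffer, pH 5.0, with PEG8000. Fluorescence read at T0 and T60; compounds tested at multiple concentrations and IC50 calculated from these readings.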

β-secretase(BACE) [2] = target: T1, β-secretase(BACE); assay: BACE Assay-2 (FS1 substrate, IC50 and Ki); settings: procedure of Example 159, FS1 substrate
β-secretase(BACE) [3] = target: T1, β-secretase(BACE); assay: BACE FS1% Inhibition Assay; settings: FS1 substrate; for inhibition at 3 µM / % Inhibition (FS) 3 μM: 3 μM test compound; for inhibition at 3 µM: read-out: % Inhibition (FS) 3 μM; for inhibition at 10 µM: 10 μM test compound, read-out: % Inhibition (FS) 10 μM; for inhibition at 0.3 µM / % Inhibition (FS) 0.3 μM: 0.3 μM test compound; for inhibition at 0.3 µM: read-out: % Inhibition (FS) 0.3 μM; for inhibition at 1 µM / % Inhibition (FS) 1 μM: 1 μM test compound; for inhibition at 1 µM: read-out: % Inhibition (FS) 1 μM
How it was run: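 Human BACE (4 μg/mL working solution) preincubated 20 min at room temperature with compound, then FS1 substrate (300 μg/mL working solution) added and incubated 1 h at room temperature. Percent inhibition calculated at each compound concentration against blank and vehicle controls.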

[4] = procedure of Example 158, read-out: IC50 μM (158)

T1 sequence (P56817 46-501): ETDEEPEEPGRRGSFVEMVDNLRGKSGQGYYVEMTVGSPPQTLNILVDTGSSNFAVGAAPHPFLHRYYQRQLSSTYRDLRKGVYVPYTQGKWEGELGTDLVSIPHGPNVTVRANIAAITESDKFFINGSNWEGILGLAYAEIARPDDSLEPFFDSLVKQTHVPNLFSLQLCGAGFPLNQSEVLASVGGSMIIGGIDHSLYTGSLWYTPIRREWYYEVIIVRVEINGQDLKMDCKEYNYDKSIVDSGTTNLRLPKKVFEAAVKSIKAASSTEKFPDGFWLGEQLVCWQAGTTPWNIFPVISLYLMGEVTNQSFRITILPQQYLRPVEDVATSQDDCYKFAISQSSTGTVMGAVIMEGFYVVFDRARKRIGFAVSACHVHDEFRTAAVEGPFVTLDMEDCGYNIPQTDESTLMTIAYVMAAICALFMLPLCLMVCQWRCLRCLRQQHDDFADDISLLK

Row | Structure (SMILES) | IC50 (β-secretase(BACE) [1]; [4]) [µM] | Ki (β-secretase(BACE) [2]; read-out: Ki μM (159)) | inhibition at 3 µM (β-secretase(BACE) [3]) [%] | inhibition at 10 µM (β-secretase(BACE) [3]) [%] | inhibition at 0.3 µM (β-secretase(BACE) [3]) [%] | inhibition at 1 µM (β-secretase(BACE) [3]) [%] | % Inhibition (FS) 0.3 μM (β-secretase(BACE) [3]) | % Inhibition (FS) 1 μM (β-secretase(BACE) [3]) | % Inhibition (FS) 3 μM (β-secretase(BACE) [3]) [%] | IC50 (β-secretase(BACE) [1]) [µM] | Ki (β-secretase(BACE) [2]; Ki μM (159))
1 | CCCCC(CC)C(=O)NCCN1Cc2cc(Oc3ccccc3)ccc2N=C1N (stereo not drawn) [Compound 122] | 0.19 | 0.17 µM | 101 | 123 |  |  |  |  |  |  | 
2 | NC1=Nc2ccc(Oc3ccccc3)cc2CN1CCNC(=O)C1CC1 [Compound 123] | 1.2 | 0.3 µM | 71 | 116 |  |  |  |  |  |  | 
3 | CCCC(CCC(=O)N(CC)C1CCCCC1)N1Cc2cc(Oc3ccccc3)ccc2N=C1N (stereo not drawn) [Compound 127] | 0.16 | 0.18 µM | 79 | 102 |  |  |  |  |  |  | 
4 | NC1=Nc2ccc(Oc3ccccc3)cc2CN1CCNC(=O)C12CC3CC(CC(C3)C1)C2 [Compound 131] | 0.1 | 0.17 µM | 115 | 130 |  |  |  |  |  |  | 
5 | CC(C)(C)C(=O)NCCN1Cc2cc(Oc3ccccc3)ccc2N=C1N [Compound 141] | 0.15 | 0.08 µM | 100 | 102 |  |  |  |  |  |  | 
6 | Cc1noc(C)c1-c1ccc2c(c1)CN(Cc1cccc(C(=O)N(C)C3CCCCC3)c1)C(N)=N2 [Compound 159] | 0.89 | 0.28 µM | 92 |  | 34 | 65 |  |  |  |  | 
7 | CN(C(=O)c1cccc(CN2Cc3cc(-c4ccsc4)ccc3N=C2N)c1)C1CCCCC1 [Compound 164] | 0.11 | 0.1 µM | 109 |  | 67 | 96 |  |  |  |  | 
8 | COc1cccc(-c2ccc3c(c2)CN(Cc2cccc(C(=O)N(C)C4CCCCC4)c2)C(N)=N3)c1 [Compound 165] | 0.19 | 0.28 µM | 101 |  | < 30 | 72 |  |  |  |  | 
9 | COc1ccccc1-c1ccc2c(c1)CN(Cc1cccc(C(=O)N(C)C3CCCCC3)c1)C(N)=N2 [Compound 167, 3-[2-Amino-6-(2-methoxy-phenyl)-4H-quinazolin-3-ylmethyl]-N-cyclohexyl-N-methyl-benzamide] | 0.014 | 0.03 µM and 0.05 µM | 113 |  | 100 | 112 | 91% | 110% | 118 |  | 
10 | CN(C(=O)c1cccc(CN2Cc3cc(-c4ccccc4O)ccc3N=C2N)c1)C1CCCCC1 [Compound 169] | 0.058 | 0.08 µM | 109 |  | 80 | 104 |  |  |  |  | 
11 | NC1=Nc2ccc(Oc3ccccc3)cc2CN1CCC(=O)NC1CCCCC1 [Compound 178] | 0.19 | 0.11 µM | 107 |  | 50 | 93 |  |  |  |  | 
12 | CCCC(CCC)C(=O)NCCN1Cc2cc(Oc3ccccc3)ccc2N=C1N [Compound 183] | 0.058 | 0.19 µM | 106 |  | 48 | 93 |  |  |  |  | 
13 | NC1=Nc2ccc(Oc3ccccc3)cc2CN1CCNC(=S)NC12CC3CC(CC(C3)C1)C2 [Compound 214, 1-Adamantan-1-yl-3-[2-(2-amino-6-phenoxy-4H-quinazolin-3-yl)-ethyl]-thiourea] | 0.19 | 0.1 µM | 101 |  | < 30 | 70 |  |  |  |  | 
14 | CC1CCCCC1C(=O)NCCN1Cc2cc(Oc3ccccc3)ccc2N=C1N (stereo not drawn) [Compound 218] | 0.13 | 0.1 µM | 114 |  | 75 | 101 |  |  |  |  | 
15 | CC(C)OC(=O)NCCN1Cc2cc(Oc3ccccc3)ccc2N=C1N [Compound 220, [2-(2-Amino-6-phenoxy-4H-quinazolin-3-yl)-ethyl]-carbamic acid isopropyl ester] | 0.45 | 0.2 µM | 102 |  | 103 | 72 |  |  |  |  | 
16 | NC1=Nc2ccc(Oc3ccccc3)cc2CN1CCC(=O)NC1C2CC3CC(C2)CC1C3 (stereo not drawn) [Compound 221, N-Adamantan-2-yl-3-(2-amino-6-phenoxy-4H-quinazolin-3-yl) propionamide] | 0.011 |  | 118 |  | 100 | 115 | 110% | 119% | 121 | 0.023 | 0.025 µM and 0.029 µM

Continued, in another order:

Row | IC50 (β-secretase(BACE) [1]; [4]) [µM] | Ki (β-secretase(BACE) [2]; read-out: Ki μM (159)) | inhibition at 3 µM (β-secretase(BACE) [3]) [%] | inhibition at 10 µM (β-secretase(BACE) [3]) [%] | inhibition at 0.3 µM (β-secretase(BACE) [3]) [%] | inhibition at 1 µM (β-secretase(BACE) [3]) [%] | % Inhibition (FS) 0.3 μM (β-secretase(BACE) [3]) | % Inhibition (FS) 1 μM (β-secretase(BACE) [3]) | % Inhibition (FS) 3 μM (β-secretase(BACE) [3]) [%] | Structure (SMILES) | IC50 (β-secretase(BACE) [1]) [µM] | Ki (β-secretase(BACE) [2]; Ki μM (159))
17 | 0.1 | 0.12 µM | 113 | 113 |  |  |  |  |  | CCCC(CCC(=O)NC1CCCCC1)N1Cc2cc(Oc3ccccc3)ccc2N=C1N (stereo not drawn) [Compound 129] |  | 
18 | 0.45 | 0.21 µM | 101 | 123 |  |  |  |  |  | NC1=Nc2ccc(Oc3ccccc3)cc2CN1CCNC(=O)C1CCC1 [Compound 130] |  | 
19 | 0.89 | 0.29 µM | 89 | 118 |  |  |  |  |  | CCCCS(=O)(=O)NCCN1Cc2cc(Oc3ccccc3)ccc2N=C1N [Compound 135, Butane-1-sulfonic acid [2-(2-amino-6-phenoxy-4H-quinazolin-3-yl)-ethyl]-amide] |  | 
20 | 0.023 | 0.06 µM | 114 |  | 98 | 113 |  |  |  | CN(C(=O)c1cccc(CN2Cc3cc(-c4ccccc4)ccc3N=C2N)c1)C1CCCCC1 [Compound 138] |  | 
21 | 0.54 | 0.12 µM | 102 |  | 51 | 78 |  |  |  | COc1ccc(NC(=O)C(C)(C)C)c(-c2ccc3c(c2)CN(Cc2cccc(C(=O)N(C)C4CCCCC4)c2)C(N)=N3)c1 [Compound 160] |  | 
22 | 0.085 | 0.07 µM | 111 |  | 85 | 106 |  |  |  | CN(C(=O)c1cccc(CN2Cc3cc(-c4ccccc4CO)ccc3N=C2N)c1)C1CCCCC1 [Compound 174] |  | 
23 | 0.015 | 0.11 µM | 120 |  | 65 | 96 |  |  |  | NC1=Nc2ccc(Oc3ccccc3)cc2CN1CCNC(=O)C1(c2ccc(Cl)cc2)CCCC1 [Compound 196] |  | 
24 | 0.062 | 0.23 µM | 107 |  |  |  | <30% and 54% | 66% and 97% | 115 | CCC(c1cccc(C(=O)N(C)C2CCCCC2)c1)N1Cc2cc(Oc3ccccc3)ccc2N=C1N (stereo not drawn) [Compound 204, 3-[1-(2-Amino-6-phenoxy-4H-quinazolin-3-yl)-propyl]-N-cyclohexyl-N-methyl-benzamide] |  | 
25 | 0.078 | 0.27 µM | 106 |  | < 30 | 62 |  |  |  | NC1=Nc2ccc(Oc3ccccc3)cc2CN1CCNC(=O)NC12CC3CC(CC(C3)C1)C2 [Compound 206, 1-Adamantan-1-yl-3-[2-(2-amino-6-phenoxy-4H-quinazolin-3-yl)-ethyl]-urea] |  | 
26 | 0.23 | 0.4 µM | 106 |  | 39 | 71 |  |  |  | NC1=Nc2ccc(Oc3ccccc3)cc2CN1CCNC(=O)NC1CCCCC1 [Compound 215] |  | 
27 | 0.31 | 0.17 µM | 108 |  | 51 | 85 |  |  |  | COC1CCCC(C(=O)NCCN2Cc3cc(Oc4ccccc4)ccc3N=C2N)C1 (stereo not drawn) [Compound 219] |  | 
